From patent US20210094955A1, “SALT AND CRYSTAL OF TRIAZOLOPYRAZINE DERIVATIVE” (priority 2017, published 2021)
Values after ≈ are worked out from the molar mass of the structure shown.

Tests used:
[1] = Solubility test, Test Method 1 (sample approx. 150 μg/mL, shaken 10 minutes at room temperature, filtrate quantified by HPLC); assay type: physicochemical; conditions: approx. 150 μg/mL added, in terms of free form
Method: Test Method of Free Form, Hydrochloride, Hydrobromide, Sulfate, Methanesulfonate, and Benzenesulfonate […] In order to uniformly disperse the sample in the dissolving solution, the sample was irradiated with ultrasonic waves in a water tank for a short time, and then vigorously shaken at room temperature for 10 minutes using a shaker SA-31 manufactured by Yamato Scientific Co., Ltd. The solution after shaken was filtered with a filter, and a concentrations of the compound in filtrate was quantified by HPLC. The following was used as the dissolving solution. […] JP2 (Japanese Pharmacopoeia 2nd Fluid for disintegration test): manufactured by Nacalai Tesque Inc. JP2+TC: Add sodium taurocholate to Japanese Pharmacopoeia 2nd Fluid for disintegration test to obtain a concentration of 15 mM. FaSSIF (artificial intestinal fluid (fasted state)): […] FeSSIF (artificial intestinal fluid (fed state)): […] Measurement conditions of free form, hydrochloride, hydrobromide, sulfate, methanesulfonate, and benzenesulfonate) Equipment: LC-1260 manufactured by Agilent Technologies Mobile phase: A: 0.01 M aqueous solution of ammonium acetate, B: 0.01 M methanol solution of ammonium acetate Flow rate: 0.3 mL/min Column: Develosil Combi-RP-5 5 μm (2.0 mm×50 mm) Column temperature: 40° C. […] Ex indicates Example Number to be described later.

[2] = Solubility test, Test Method 2 (sample approx. 300 μg/mL, shaken 10 minutes at room temperature, filtrate quantified by HPLC); assay type: physicochemical; conditions: approx. 300 μg/mL added, in terms of free form
Method: JP1 (Japanese Pharmacopoeia 1st Fluid for disintegration test): manufactured by Nacalai Tesque Inc.
JP2 (Japanese Pharmacopoeia 2nd Fluid for disintegration test): manufactured by Nacalai Tesque Inc.
JP2+TC: Add sodium taurocholate to Japanese Pharmacopoeia 2nd Fluid for disintegration test to obtain a concentration of 15 mM.
FaSSIF (artificial intestinal fluid (fasted state)): To 1 L of water, 3 mmol of sodium taurocholate, 0.75 mmol of lecithin, 3.9 g of potassium dihydrogen phosphate, and 7.7 g of potassium chloride are added, and a pH thereof is adjusted to approximately 6.5 using sodium hydroxide.
FeSSIF (artificial intestinal fluid (fed state)): To 1 L of water, 15 mmol of sodium taurocholate, 3.75 mmol of lecithin, 8.65 g of acetic acid, and 15.2 g of potassium chloride are added, and a pH is adjusted to approximately 5.0 using sodium hydroxide.
Test Method 2: Test Method for p-Toluenesulfonate and 1-Hydroxy-2-Naphthoate
Into a 10 mL centrifuge tube, 1 to 1.3 mg of a sample was weighed, and each dissolving solution (see below) was added thereto to be approximately 300 μg/mL. In order to uniformly disperse the sample in the dissolving solution, the sample was irradiated with ultrasonic waves in a water tank for a short time, and then vigorously shaken at room temperature for 10 minutes using a shaker SA-31 manufactured by Yamato Scientific Co., Ltd. The solution after shaken was filtered with a filter, and a concentration of the compound in filtrate was quantified by HPLC. The same dissolving solution as in Test Method 1 was used.
(Measurement condition 2 using HPLC: Measurement conditions of p-toluenesulfonate and 1-hydroxy-2-naphthoate)
Equipment: LC-1260 manufactured by Agilent Technologies
Mobile phase: A: 0.1% aqueous perchloric acid, B: methanol
Column: YMC-Triart C18 S-3 μm (2.0 mm×50 mm)
Column temperature: 40° C.
Detection wavelength: 254 nm
Ex indicates Example Number to be described later.

[3] = pH 1.2, simulated gastric fluid, thermodynamic from solid, JP1 (Japanese Pharmacopoeia 1st Fluid for disintegration test), 10 minutes shaking, read-out: Solubility JP1
[4] = pH 5, thermodynamic from solid, FeSSIF (artificial intestinal fluid, fed state), pH approx. 5.0, 10 minutes shaking, read-out: Solubility FeSSIF
[5] = pH 6.5, thermodynamic from solid, FaSSIF (artificial intestinal fluid, fasted state), pH approx. 6.5, 10 minutes shaking, read-out: Solubility FaSSIF
[6] = pH 6.8, aqueous buffer, thermodynamic from solid, JP2 (Japanese Pharmacopoeia 2nd Fluid for disintegration test), 10 minutes shaking, read-out: Solubility JP2
[7] = pH 6.8, fassgf or other biorelevant, thermodynamic from solid, JP2 with 15 mM sodium taurocholate, 10 minutes shaking, read-out: Solubility JP2 + TC

Row | SMILES | solubility at 10 min [1, 3] | solubility at 10 min [1, 4] | solubility at 10 min [1, 5] | solubility at 10 min [1, 6] | solubility at 10 min [1, 7] | also measured
1 | Cc1nsc(-c2nnc3n2CCN(C(=O)c2ccc(F)cc2)[C@@H]3C)n1 [Compound A, (4-fluorophenyl)[(8R)-8-methyl-3-(3-methyl-1,2,4-thiadiazol-5-yl)-5,6-dihydro[1,2,4]triazolo[4,3-a]pyrazin-7(8H)-yl]methanone, reference compound] | 66.6 µg/mL (≈ 186 µM) | 31.9 µg/mL (≈ 89 µM) | 36.5 µg/mL (≈ 102 µM) | 65.4 µg/mL (≈ 182 µM) | 82.9 µg/mL | –
2 | Cc1nsc(-c2nnc3n2CCN(C(=O)c2ccc(F)cc2)[C@@H]3C)n1.Cl [Example 1, (4-fluorophenyl)[(8R)-8-methyl-3-(3-methyl-1,2,4-thiadiazol-5-yl)-5,6-dihydro[1,2,4]triazolo[4,3-a]pyrazin-7(8H)-yl]methanone hydrochloride] | > 100 µg/mL | > 100 µg/mL | > 100 µg/mL | > 100 µg/mL | > 100 µg/mL | –
3 | Br.Cc1nsc(-c2nnc3n2CCN(C(=O)c2ccc(F)cc2)[C@@H]3C)n1 [Example 2, (4-fluorophenyl)[(8R)-8-methyl-3-(3-methyl-1,2,4-thiadiazol-5-yl)-5,6-dihydro[1,2,4]triazolo[4,3-a]pyrazin-7(8H)-yl]methanone hydrobromide] | > 100 µg/mL | > 100 µg/mL | > 100 µg/mL | > 100 µg/mL | > 100 µg/mL | –
4 | Cc1nsc(-c2nnc3n2CCN(C(=O)c2ccc(F)cc2)[C@@H]3C)n1.O=S(=O)(O)O [Example 3, (4-fluorophenyl)[(8R)-8-methyl-3-(3-methyl-1,2,4-thiadiazol-5-yl)-5,6-dihydro[1,2,4]triazolo[4,3-a]pyrazin-7(8H)-yl]methanone sulfate] | > 100 µg/mL | > 100 µg/mL | > 100 µg/mL | > 100 µg/mL | > 100 µg/mL | –
5 | Cc1ccc(S(=O)(=O)O)cc1.Cc1nsc(-c2nnc3n2CCN(C(=O)c2ccc(F)cc2)[C@@H]3C)n1 [Example 5, (4-fluorophenyl)[(8R)-8-methyl-3-(3-methyl-1,2,4-thiadiazol-5-yl)-5,6-dihydro[1,2,4]triazolo[4,3-a]pyrazin-7(8H)-yl]methanone p-toluenesulfonate] | – | – | – | – | – | solubility at 10 min [2, 3]: > 100 µg/mL; solubility at 10 min [2, 4]: > 100 µg/mL; solubility at 10 min [2, 5]: > 100 µg/mL; solubility at 10 min ([2]; pH 6.8, fassgf or other biorelevant, thermodynamic from solid, JP2 (Japanese Pharmacopoeia 2nd Fluid for disintegration test), 10 minutes shaking, read-out: Solubility JP2): > 100 µg/mL; solubility at 10 min [2, 7]: > 100 µg/mL
6 | CS(=O)(=O)O.Cc1nsc(-c2nnc3n2CCN(C(=O)c2ccc(F)cc2)[C@@H]3C)n1 [Example 6, (4-fluorophenyl)[(8R)-8-methyl-3-(3-methyl-1,2,4-thiadiazol-5-yl)-5,6-dihydro[1,2,4]triazolo[4,3-a]pyrazin-7(8H)-yl]methanone methanesulfonate] | > 100 µg/mL | > 100 µg/mL | > 100 µg/mL | > 100 µg/mL | > 100 µg/mL | –
7 | Cc1nsc(-c2nnc3n2CCN(C(=O)c2ccc(F)cc2)[C@@H]3C)n1.O=S(=O)(O)c1ccccc1 [Example 7, (4-fluorophenyl)[(8R)-8-methyl-3-(3-methyl-1,2,4-thiadiazol-5-yl)-5,6-dihydro[1,2,4]triazolo[4,3-a]pyrazin-7(8H)-yl]methanone benzenesulfonate] | > 100 µg/mL | > 100 µg/mL | > 100 µg/mL | > 100 µg/mL | > 100 µg/mL | –
8 | Cc1nsc(-c2nnc3n2CCN(C(=O)c2ccc(F)cc2)[C@@H]3C)n1.O=C(O)c1ccc2ccccc2c1O [Example 8, (4-fluorophenyl)[(8R)-8-methyl-3-(3-methyl-1,2,4-thiadiazol-5-yl)-5,6-dihydro[1,2,4]triazolo[4,3-a]pyrazin-7(8H)-yl]methanone 1-hydroxy-2-naphthoate] | – | – | – | – | – | Solubility FaSSIF ([2]; FaSSIF (artificial intestinal fluid, fasted state), pH approx. 6.5, 10 minutes shaking): >100 µg/mL; Solubility FeSSIF ([2]; FeSSIF (artificial intestinal fluid, fed state), pH approx. 5.0, 10 minutes shaking): >100 µg/mL; Solubility JP1 ([2]; JP1 (Japanese Pharmacopoeia 1st Fluid for disintegration test), 10 minutes shaking): 58.9 µg/mL; Solubility JP2 ([2]; JP2 (Japanese Pharmacopoeia 2nd Fluid for disintegration test), 10 minutes shaking): >100 µg/mL; Solubility JP2 + TC ([2]; JP2 with 15 mM sodium taurocholate, 10 minutes shaking): >100 µg/mL
